# Test system: NCIH929.1 cells
# Experiment: Cell viability assay for Table 2 (CellTiter-Glo 2.0, ATP quantification, 96 hr)
# Format: cell-based
# Settings: 96 h, NCIH929.1 cell viability, 96 hr, top concentration 1 μM, 14 points half log titration; read-out: IC50
# Excerpt: Cell Viability Assay for Table 2
# CellTiter-Glo® 2.0 Assay was purchased from Promega (Madison, Wis., USA). NCIH929.1 cell line was purchased from ATCC (Manassas, Va., USA). Cell culture flasks and 384-well microplates were acquired from VWR (Radnor, Pa., USA).
row,SMILES,IC50 [nM]
1,"O=C1CCC(N2C(=O)c3cccc4c(Cc5ccc(CN6CCC(Oc7ccc(F)cc7)CC6)cc5)ccc2c34)C(=O)N1 (stereo not drawn) [Compound 258, 3-(6-(4-((4-(4-fluorophenoxy)piperidin-1-yl)methyl)benzyl)-2-oxobenzo[cd]indol-1(2H)-yl)piperidine-2,6-dione]",< 1
2,"CC(C)(C)C[C@H]1CC[C@@H](n2cc(Cc3ccc4c5c(cccc35)C(=O)N4C3CCC(=O)NC3=O)cn2)CC1 (stereo partly drawn) [Compound 259, 3-(6-((1-((1r,4r)-4-neopentylcyclohexyl)-1H-pyrazol-4-yl)methyl)-2-oxobenzo[cd]indol-1(2H)-yl)piperidine-2,6-dione]",< 1
3,"CC(C)(C)C[C@H]1CC[C@H](n2cc(Cc3ccc4c5c(cccc35)C(=O)N4C3CCC(=O)NC3=O)cn2)CC1 (stereo partly drawn) [Compound 260, 3-(6-((1-((1s,4s)-4-neopentylcyclohexyl)-1H-pyrazol-4-yl)methyl)-2-oxobenzo[cd]indol-1(2H)-yl)piperidine-2,6-dione]",< 1
4,"CN(C(=O)N1CCC(n2cc(Cc3ccc4c5c(cccc35)C(=O)N4C3CCC(=O)NC3=O)cn2)CC1)C1CC1 (stereo not drawn) [Compound 261, N-cyclopropyl-4-(4-((1-(2,6-dioxopiperidin-3-yl)-2-oxo-1,2-dihydrobenzo[cd]indol-6-yl)methyl)-1H-pyrazol-1-yl)-N-methylpiperidine-1-carboxamide]",< 1
5,"N#Cc1ccc(N2CCN(C3(c4ccc(Cc5ccc6c7c(cccc57)C(=O)N6C5CCC(=O)NC5=O)cc4)CC3)CC2)c(F)c1 (stereo not drawn) [Compound 262, 4-[4-(1-{4-[1-(2,6-Dioxo-piperidin-3-yl)-2-oxo-1,2-dihydro-benzo[cd]indol-6-ylmethyl]-phenyl}-cyclopropyl)-piperazin-1-yl]-3-fluoro-benzonitrile]",< 1
6,"CC1(C(=O)N2CCN(C3(c4ccc(Cc5ccc6c7c(cccc57)C(=O)N6C5CCC(=O)NC5=O)cc4)CC3)CC2)CCC1 (stereo not drawn) [Compound 263, 3-[6-(4-{1-[4-(1-Methyl-cyclobutanecarbonyl)-piperazin-1-yl]-cyclopropyl}-benzyl)-2-oxo-2H-benzo[cd]indol-1-yl]-piperidine-2,6-dione]",< 1
7,"O=C1CCC(N2C(=O)c3cccc4c(Cc5ccc(C6(N7CCN(c8ccccc8F)CC7)CC6)cc5)ccc2c34)C(=O)N1 (stereo not drawn) [Compound 264, 3-[6-(4-{1-[4-(2-Fluoro-phenyl)-piperazin-1-yl]-cyclopropyl}-benzyl)-2-oxo-2H-benzo[cd]indol-1-yl]-piperidine-2,6-dione]",< 1
8,"CN1CC2CC(C(=O)N3CCC(n4cc(Cc5ccc6c7c(cccc57)C(=O)N6C5CCC(=O)NC5=O)cn4)CC3)(C2)C1 (stereo not drawn) [Compound 265, 3-(6-((1-(1-(3-methyl-3-azabicyclo[3.1.1]heptane-1-carbonyl)piperidin-4-yl)-1H-pyrazol-4-yl)methyl)-2-oxobenzo[cd]indol-1(2H)-yl)piperidine-2,6-dione]",< 1
9,"CC(C)(C)OC(=O)N1CCC(n2cc(C(O)c3ccc4c5c(cccc35)C(=O)N4C3CCC(=O)NC3=O)cn2)CC1 (stereo not drawn) [Compound 266, tert-butyl 4-[4-[[1-(2,6-dioxo-3-piperidyl)-2-oxo-benzo[cd]indol-6-yl]-hydroxy-methyl]pyrazol-1-yl]piperidine-1-carboxylate]",< 1
10,"O=C1CCC(N2C(=O)c3cccc4c(Cc5ccc(CN6CCC7(CCCO7)CC6)cc5)ncc2c34)C(=O)N1 (stereo not drawn) [Compound 267, 3-[24-[[4-(1-oxa-8-azaspiro[4.5]decan-8-ylmethyl)phenyl]methyl]-28-oxo-31,34-diazatricyclododeca-,2(22),7(23),21(25),24(31)-pentaen-34-yl]piperidine-2,6-dione]",< 1
11,"O=C1CCC(N2C(=O)c3cccc4c(Cc5ccc(CN6CCOCC6)nc5)ccc2c34)C(=O)N1 (stereo not drawn) [Compound 269, 3-[6-[[6-(morpholinomethyl)-3-pyridyl]methyl]-2-oxo-benzo[cd]indol-1-yl]piperidine-2,6-dione]",< 1
12,"CC1(C(=O)N2CCC(c3cnn(Cc4ccc5c6c(cccc46)C(=O)N5C4CCC(=O)NC4=O)c3)CC2)CCC1 (stereo not drawn) [Compound 270, 3-[6-[[4-[1-(1-methylcyclobutanecarbonyl)-4-piperidyl]pyrazol-1-yl]methyl]-2-oxo-benzo[cd]indol-1-yl]piperidine-2,6-dione]",< 1
13,"CC1(C(=O)N2CCC(C)(n3cc(Cc4ccc5c6c(cccc46)C(=O)N5C4CCC(=O)NC4=O)cn3)CC2)CCN(c2ccccn2)CC1 (stereo not drawn) [Compound 271, 3-(6-((1-(4-methyl-1-(4-methyl-1-(pyridin-2-yl)piperidine-4-carbonyl)piperidin-4-yl)-1H-pyrazol-4-yl)methyl)-2-oxobenzo[cd]indol-1(2H)-yl)piperidine-2,6-dione]",< 1
14,"CC1(n2cc(Cc3ccc4c5c(cccc35)C(=O)N4C3CCC(=O)NC3=O)cn2)CCN(C(=O)C2CCN(c3ccccn3)CC2)CC1 (stereo not drawn) [Compound 272, 3-[6-[[1-[4-methyl-1-[1-(2-pyridyl)piperidine-4-carbonyl]-4-piperidyl]pyrazol-4-yl]methyl]-2-oxo-benzo[cd]indol-1-yl]piperidine-2,6-dione]",< 1
15,"O=C1CCC(N2C(=O)c3cccc4c(Oc5ccc(CN6CCOCC6)cc5)ccc2c34)C(=O)N1 (stereo not drawn) [Compound 273, 3-(6-(4-(morpholinomethyl)phenoxy)-2-oxobenzo[cd]indol-1(2H)-yl)piperidine-2,6-dione]",< 100
16,"CC1(CN2CCC(n3cc(Cc4ccc5c6c(cccc46)C(=O)N5C4CCC(=O)NC4=O)cn3)CC23CC3)CCC1 (stereo not drawn) [Compound 275, 3-[6-[[1-[4-[(1-methylcyclobutyl)methyl]-4-azaspiro[2.5]octan-7-yl]pyrazol-4-yl]methyl]-2-oxo-benzo[cd]indol-1-yl]piperidine-2,6-dione]",< 1
17,"CC(C)(C)OC(=O)N1CCC(c2ccc3c4c(cccc24)C(=O)N3C2CCC(=O)NC2=O)CC1 (stereo not drawn) [Compound 276, tert-butyl 4-[1-(2,6-dioxo-3-piperidyl)-2-oxo-benzo[cd]indol-6-yl]piperidine-1-carboxylate]",> 999
18,"O=C1CCC(N2C(=O)c3cccc4c(Cc5ccccc5)ccc2c34)C(=O)N1 (stereo not drawn) [Compound 277, 3-(6-benzyl-2-oxo-benzo[cd]indol-1-yl)piperidine-2,6-dione]",< 1
19,"O=C1CCC(N2C(=O)c3cccc4c(Cc5ccc(CN6CCOCC6)c(F)c5)ccc2c34)C(=O)N1 (stereo not drawn) [Compound 278, 3-[6-{[3-fluoro-4-(morpholinomethyl)phenyl]methyl}-2-oxo-benzo[cd]indol-1-yl]piperidine-2,6-dione]",< 1
20,"N#Cc1ccc(N2CCN(Cc3ccc(Cc4ccc5c6c(cccc46)C(=O)N5C4CCC(=O)NC4=O)cn3)CC2)c(F)c1 (stereo not drawn) [Compound 279, 4-[4-[[5-[[1-(2,6-dioxo-3-piperidyl)-2-oxo-benzo[cd]indol-6-yl]methyl]-2-pyridyl]methyl]piperazin-1-yl]-3-fluoro-benzonitrile]",< 1
21,"Cc1cc(Cc2ccc3c4c(cccc24)C(=O)N3C2CCC(=O)NC2=O)ccc1CN1CCN(c2ccccc2F)CC1 (stereo not drawn) [Compound 286, 3-[6-[[4-[[4-(2-fluorophenyl)piperazin-1-yl]methyl]-3-methyl-phenyl]methyl]-2-oxo-benzo[cd]indol-1-yl]piperidine-2,6-dione]",< 1
22,"CN(C)C1(C(=O)N2CCC(n3cc(Cc4ccc5c6c(cccc46)C(=O)N5C4CCC(=O)NC4=O)cn3)CC2)CCC1 (stereo not drawn) [Compound 287, 3-[6-[[1-[1-[1-(dimethylamino)cyclobutanecarbonyl]-4-piperidyl]pyrazol-4-yl]methyl]-2-oxo-benzo[cd]indol-1-yl]piperidine-2,6-dione]",< 1
23,"O=C1CCC(N2C(=O)c3cccc4c(Cc5cnn(C6CCN(C7CC8(CCC8)C7)CC6)c5)ccc2c34)C(=O)N1 (stereo not drawn) [Compound 288, 3-[2-oxo-6-[[1-(1-spiro[3.3]heptan-2-yl-4-piperidyl)pyrazol-4-yl]methyl]benzo[cd]indol-1-yl]piperidine-2,6-dione]",< 1
24,"CC1(C(=O)N2CCC(n3cc(Cc4cnc5c6c(cccc46)C(=O)N5C4CCC(=O)NC4=O)cn3)CC2)CCC1 (stereo not drawn) [Compound 289, 3-[20-[[1-[1-(1-methylcyclobutanecarbonyl)-4-piperidyl]pyrazol-4-yl]methyl]-26-oxo-30,35-diazatricyclododeca-1,3(18),5(20),17(21),22(30)-pentaen-35-yl]piperidine-2,6-dione]",< 100
25,"CC1(C(=O)N2CCC(c3cccc(Cc4ccc5c6c(cccc46)C(=O)N5C4CCC(=O)NC4=O)c3)CC2)CCC1 (stereo not drawn) [Compound 290, 3-[6-[[3-[1-(1-methylcyclobutanecarbonyl)-4-piperidyl]phenyl]methyl]-2-oxo-benzo[cd]indol-1-yl]piperidine-2,6-dione]",< 1
26,"CC(C)(C)OC(=O)N1CC2CC(C(=O)N3CCC(n4cc(Cc5ccc6c7c(cccc57)C(=O)N6C5CCC(=O)NC5=O)cn4)CC3)(C2)C1 (stereo not drawn) [Compound 292, tert-butyl 1-(4-(4-((1-(2,6-dioxopiperidin-3-yl)-2-oxo-1,2-dihydrobenzo[cd]indol-6-yl)methyl)-1H-pyrazol-1-yl)piperidine-1-carbonyl)-3-azabicyclo[3.1.1]heptane-3-carboxylate]",< 1
27,"CN1C(=O)CCC(N2C(=O)c3cccc4c(Cc5cnn(C6CCN(CC7(C)CCC7)CC6)c5)ccc2c34)C1=O (stereo not drawn) [Compound 294, 1-methyl-3-(6-((1-(1-((1-methylcyclobutyl)methyl)piperidin-4-yl)-1H-pyrazol-4-yl)methyl)-2-oxobenzo[cd]indol-1(2H)-yl)piperidine-2,6-dione]",< 100

# — patent US20230082430A1 (C4 Therapeutics, Inc., priority 2019, published 2023)
